Source: publication PMC11357446, “Searching for Novel HDAC6/Hsp90 Dual Inhibitors with Anti-Prostate Cancer Activity: In Silico Screening and In Vitro Evaluation” (Pharmaceuticals, 2024)
Like-named read-outs stand apart in the source and are kept apart here.

Tests used:
HDAC6 = HDAC6 (UniProt ID: Q9UBN7); set-up: method as in ChEMBL [62]; settings: ChEMBL record on recombinant protein; ref ChEMBL [62]; read-out: HDAC6 IC50 (Standard Value); cited from earlier work
Hsp90 = Hsp90 (UniProt ID: P07900); set-up: method as in ChEMBL [62]; settings: ChEMBL record on recombinant protein; ref ChEMBL [62]; read-out: Hsp90 Ki (Standard Value); cited from earlier work
[1] = test system: PC-3 prostate cancer cells; test: Cell viability assay (MTT) on PC-3 cells; format: cell-based, human; settings: Homo sapiens, PC-3, 72 h, read-out: PC-3 GI50
Protocol: (§1) The human prostate cancer cell line PC-3 (ATCC Cat# CRL-1435) was grown in Ham’s F12 (Biowest, Nuaillé, France) medium, while the human prostate cancer cell line LNCaP (ATCC Cat# CRL-1740) was grown in RPMI 1640 (Biowest, Nuaillé, France) medium. Both media were supplemented with 10% Fetal Bovine Serum (FBS, Gibco, Fisher Scientific Italia, Segrate, Italy), 2 mM glutamine, 100 U/mL penicillin, and 100 μg/mL streptomycin. PC-3 and LNCaP cells were maintained at 37 °C in a humidified 5% CO2 atmosphere.
(§2) PC-3 and LNCaP cells were seeded at a density of 4000 and 6000 cells/well into a 96-well plate, respectively, together with a calibration curve of known cell numbers. The following day, the cells were treated with the indicated test compounds at different concentrations starting at 75μM with 2-fold serial dilutions. Cell viability was evaluated after 72h by colorimetric MTT (PC-3) or PrestoBlue™ (LNCaP) cell viability reagents. A total of 0.5 mg/mL of thiazolyl blue tetrazolium bromide (MTT) (Sigma-Aldrich, St. Louis, MO, USA) in Ham’s F12 medium was added to the wells, and the plate was incubated at 37 °C for 2 h. Medium containing unconverted MTT was removed, and 100 μL of MTT solvent (4 mM HCl, 0.1% NP40, in isopropyl alcohol) was added to the wells in order to solubilize MTT crystals. After 15 min of incubation at room temperature, the absorbance values at 570 nm were obtained with a Multiskan FC Microplate Photometer (Thermo Fisher Scientific, Waltham, MA, USA). PrestoBlue reagent (#A13261, Thermo Fisher Scientific, Waltham, MA, USA) was added to the medium (1:10 v/v) and incubated for 1 h at 37 °C. Cell viability was calculated by quantifying PrestoBlue reduction by measuring the absorbance at 570 and 620 nm, according to the manufacturer’s protocol. The viability of untreated cells was arbitrarily set at 100%, and the concentration at which cellular growth is inhibited by 50% (GI50) was determined. Three independent experiments were performed.

HDAC6 recombinant enzyme = molecular target: T1, HDAC6 recombinant enzyme (Homo sapiens, UniProt Q9UBN7); test: Fluorimetric HDAC6 assay; format: biochemical; settings: singlicate
T1 sequence (Q9UBN7 1-1215): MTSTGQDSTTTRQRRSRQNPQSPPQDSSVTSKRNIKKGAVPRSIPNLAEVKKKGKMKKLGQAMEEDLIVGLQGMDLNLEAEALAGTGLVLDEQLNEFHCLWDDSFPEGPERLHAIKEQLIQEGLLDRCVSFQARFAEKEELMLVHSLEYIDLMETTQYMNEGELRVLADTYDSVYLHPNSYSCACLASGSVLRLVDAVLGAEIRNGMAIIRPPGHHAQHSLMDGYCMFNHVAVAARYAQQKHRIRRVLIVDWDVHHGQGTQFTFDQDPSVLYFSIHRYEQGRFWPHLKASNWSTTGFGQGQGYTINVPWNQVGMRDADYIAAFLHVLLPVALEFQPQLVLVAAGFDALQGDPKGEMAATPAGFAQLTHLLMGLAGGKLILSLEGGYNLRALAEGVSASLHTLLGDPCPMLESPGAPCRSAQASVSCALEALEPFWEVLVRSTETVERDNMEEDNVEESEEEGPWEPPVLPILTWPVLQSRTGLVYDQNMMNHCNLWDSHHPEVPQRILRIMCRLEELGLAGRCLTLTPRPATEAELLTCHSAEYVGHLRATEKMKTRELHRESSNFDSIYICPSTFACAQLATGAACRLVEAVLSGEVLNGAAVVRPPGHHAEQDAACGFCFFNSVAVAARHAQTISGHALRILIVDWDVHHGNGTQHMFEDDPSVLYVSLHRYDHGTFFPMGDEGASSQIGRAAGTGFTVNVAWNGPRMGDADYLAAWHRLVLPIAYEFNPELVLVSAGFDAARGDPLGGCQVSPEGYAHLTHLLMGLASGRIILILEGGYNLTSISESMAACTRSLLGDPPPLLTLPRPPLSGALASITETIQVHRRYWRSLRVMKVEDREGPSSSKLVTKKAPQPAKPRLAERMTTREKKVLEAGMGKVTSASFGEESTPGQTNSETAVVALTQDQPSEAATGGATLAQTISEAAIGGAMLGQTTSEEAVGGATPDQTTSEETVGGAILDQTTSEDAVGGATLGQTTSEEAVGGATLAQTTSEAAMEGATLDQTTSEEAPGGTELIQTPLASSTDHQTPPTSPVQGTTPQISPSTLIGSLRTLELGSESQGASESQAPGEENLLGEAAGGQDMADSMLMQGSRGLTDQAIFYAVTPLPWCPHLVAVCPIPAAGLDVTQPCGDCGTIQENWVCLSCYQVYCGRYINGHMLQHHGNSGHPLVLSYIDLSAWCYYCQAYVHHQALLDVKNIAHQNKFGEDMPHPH
Protocol: In vitro assessments of compounds on the HDAC6 enzyme were performed, as described in our previous works. […] The blank employed for curve fitting was evaluated on a solution of the buffer containing a concentration of […] of DMSO. IC50 values were calculated by using the GraphPad Prism 4 program based on a sigmoidal dose–response equation.

[2] = test system: LNCaP prostate cancer cells; test: Cell viability assay (PrestoBlue) on LNCaP cells; format: cell-based, human; settings: Homo sapiens, LNCaP, 72 h, read-out: LNCaP GI50
Protocol: as §1, §2

[3] = test system: acetylated tubulin (Ac-Tub) in LNCaP cells; test: Western blot of acetylated α-Tubulin in LNCaP cells; format: cell-based, human; settings: 24 h at GI50 concentration, normalized with Tubulin
Protocol: To assess whether the observed antiproliferative activity of the selected compounds was a consequence of HDAC6-targeting, we examined the effect of the cell treatments on the expression levels of acetylated tubulin (Ac-Tub), a well-known HDAC6 target. LNCaP and PC-3 cells were treated with the tested compounds at their GI50 concentrations, and SDS-PAGE and western blot were performed. In addition, the acetylation levels of histone H3, which are mainly regulated by HDAC1, were also evaluated in order to exclude potential class I-HDAC off-target activities. We used Tubastatin-A and Geldanamycin as reference controls for cellular effects resulting from HDAC6- and Hsp90-inhibition, respectively. The results in Figure 2 show a significant increase in α-Tubulin acetylation in LNCaP cells after treatments with compounds 8, 11 and 18. Indeed, these compounds triggered a 2.9-, 5.1-, and 2.5-fold increase, respectively, compared to the control (DMSO). […].
Figure 2 Western blot analysis and relative quantification of the expression levels of acetylated-Tubulin (Ac-TUB), acetylated H3 (Ac-H3), and HSP70 in LNCaP (A,B) and PC-3 (C,D) cells treated for 24 h at GI50 concentration. Tubastatin-A was used as HDAC6-specific positive control, Geldanamycin (GELDA) as HSP90-specific positive control, and SAHA as pan-HDAC inhibitor. Protein expression was normalized with Tubulin levels (Ac-TUB and HSP70) or total H3 (Ac-H3). Quantification is reported as fold change in treated cells versus DMSO control (CTR), arbitrarily set at 1 (one sample t-test p-values: * p < 0.05, ** p < 0.01, *** p < 0.001, **** p < 0.0001; n = 3).
Cell treatment. PC-3 and LNCaP cells were grown in 12-well tissue-culture plates and treated with test compounds at the evaluated GI50 concentration for each candidate inhibitor for 24 h. DMSO was used as a negative control, while Tubastatin-A and Geldanamycin were used as positive controls for HDAC6 and Hsp90 inhibition, respectively. Vorinostat (SAHA) was used as a pan-HDACi control. […] Protein quantitation was performed with Pierce Detergent Compatible Bradford Assay (#23246, Thermo Fisher Scientific, MA, USA), and equivalent amounts of cellular extracts were resolved by SDS-PAGE, transferred to PVDF or Nitrocellulose membrane with Trans-Blot Turbo Transfer System (Bio-Rad, Hercules, CA, USA), and immunoblotted with the following primary antibodies, diluted 1:1000 in 1× TBS with 1 mg/mL BSA: Anti-Histone H3 (#PA5-16183, Invitrogen, Thermo Fisher Scientific, MA, USA), Anti-acetylated histone H3 (#sc-518011, Santa Cruz Biotechnology, Inc., Dallas, TX, USA), Anti-Tubulin (#E-AB-20073, Elabscience, Houston, TX, USA), Anti-acetylated α-tubulin (#sc-23950, Santa Cruz), and Anti-HSP70 (#4872S, Cell Signaling Technology, Inc., Danvers, MA, USA). […]

[4] = 72 h treatment, MTT, mean of three independent experiments ± SEM
[5] = 72 h treatment, PrestoBlue, mean of three independent experiments ± SEM

SMILES	IC50 (HDAC6) [nM]	further results
O=C(/C=C/c1ccc2c(c1)C(=O)N(Cc1ccccc1)C2)NO [CHEMBL247217]	230	
CC(C)(C)c1ccc(CN2Cc3ccc(/C=C/C(=O)NO)cc3C2=O)cc1 [CHEMBL247218]	990	
O=C(NO)c1ccc(CN2C(=O)CNC(=O)[C@H]2Cc2c[nH]c3ccccc23)cc1 [CHEMBL481719]	110	
O=C(Cc1ccc(-c2noc(C(F)(F)F)n2)cc1)N1CCOCC1 [CHEMBL3688148]	5500	
O=C(NCc1ccc(CN2CCOCC2)cc1)c1ccc(-c2noc(C(F)(F)F)n2)cc1 [CHEMBL3692580]	5700	
O=C(Nc1ccncc1)c1ccc(-c2noc(C(F)(F)F)n2)cc1 [CHEMBL3692583]	2100	
O=C(Nc1cccnc1)c1ccc(-c2noc(C(F)(F)F)n2)cc1 [CHEMBL3692584]	4800	
O=C(NC1CCCCC1O)c1ccc(-c2noc(C(F)(F)F)n2)cc1 (centres unmarked) [CHEMBL3692597]	7100	
COc1cc(NC(=O)c2ccc(-c3noc(C(F)(F)F)n3)cc2)ccn1 [CHEMBL3692603]	8300	
Cc1cc(NC(=O)c2ccc(-c3noc(C(F)(F)F)n3)cc2)cc(C)n1 [CHEMBL3692604]	5300	
N#Cc1cc(NC(=O)c2ccc(-c3noc(C(F)(F)F)n3)cc2)ccn1 [CHEMBL3692609]	6100	
O=C(Nc1ccnc(C(F)(F)F)c1)c1ccc(-c2noc(C(F)(F)F)n2)cc1 [CHEMBL3692610]	8600	
Cc1cc(NC(=O)c2ccc(-c3noc(C(F)(F)F)n3)cc2F)cc(C)n1 [CHEMBL3692624]	2500	
C[C@H](CN1CCCCC1)NC(=O)c1ccc(-c2noc(C(F)(F)F)n2)cc1F [CHEMBL3692663]	3000	
C[C@H](CN1CCOCC1)NC(=O)c1ccc(-c2noc(C(F)(F)F)n2)cc1 [CHEMBL3692680]	6700	
C[C@H](CN1CCOCC1)NC(=O)c1ccc(-c2noc(C(F)(F)F)n2)cc1F [CHEMBL3692681]	3200	
CC(C)c1nc2ccccc2n1Cc1ccc(C(=O)NO)cc1 [CHEMBL3926575]	47	
Cc1c(C)n(Cc2ccc(C(=O)NO)cc2)c2ccccc12 [CHEMBL3971436]	4.08	
CCNC(=O)c1noc(-c2cc(Cl)c(O)cc2O)c1-c1ccc(CN2CCOCC2)cc1C [CHEMBL4060353]		Ki (Hsp90): 32 nM
CC(C)CN1CC(=O)N2Cc3c(c4ccccc4n3Cc3ccc(C(=O)NO)cc3)CC2C1=O (centres unmarked) [CHEMBL4284297]	3.78	
CN1CC(=O)N2Cc3c(c4ccccc4n3Cc3ccc(C(=O)NO)cc3)CC2C1=O (centres unmarked) [CHEMBL4292944]	13.6	
CC(C)(C)c1cc2ccccc2n1Cc1ccc(C(=O)NO)cc1 [CHEMBL4468860]	2000	
N#Cc1ccc(NC(=O)c2cccc(-c3noc(C(F)(F)F)n3)c2)c(O)c1 [Compound 4]		GI50 [1, 4]: 9500 ± 500 nM; IC50 (HDAC6 recombinant enzyme): 17000 nM; GI50 [2, 5]: 9500 ± 700 nM
COC1=C2C[C@@H](C)C[C@H](OC)[C@H](O)[C@@H](C)/C=C(\C)[C@H](OC(N)=O)[C@@H](OC)/C=C\C=C(/C)C(=O)NC(=CC1=O)C2=O [Geldanamycin]		GI50 [1, 4]: 30 ± 20 nM; GI50 [2, 5]: 50 ± 20 nM
O=C(CCCCCCC(=O)Nc1ccccc1)NO [SAHA, Vorinostat]		GI50 [1]: 1900 ± 200 nM; GI50 [2]: 1300 ± 300 nM
CN1CCc2c(c3ccccc3n2Cc2ccc(C(=O)NO)cc2)C1 [Tubastatin-A]		GI50 [1, 4]: 11100 ± 1600 nM; α-Tubulin acetylation, fold increase compared to the control (DMSO) [3]: 3.3 fold; GI50 [2, 5]: 5900 ± 1500 nM
